From PubChem BioAssay (NCI)
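96-well plates; 48 h exposure; 5 concentrations. Endpoints by linear interpolation between flanking doses. Not reached: highest tested concentration assigned. TGI is the concentration that stops growth completely.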

Columns and labels:
Assay in all cases: inhibition of tumour cell growth, NCI panel, 48 h
OVCAR-3 ovarian = system: OVCAR-3 ovarian
UACC-257 melanoma = system: UACC-257 melanoma
MOLT-4 leukemia = system: MOLT-4 leukemia
A549 NSCLC = system: A549 NSCLC
SK-MEL-28 melanoma = system: SK-MEL-28 melanoma
SK-MEL-2 melanoma = system: SK-MEL-2 melanoma
HL-60(TB) leukemia = system: HL-60(TB) leukemia
HCT-15 colon = system: HCT-15 colon
RXF-631 renal = system: RXF-631 renal
DMS 273 small cell lung = system: DMS 273 small cell lung
SF-295 CNS = system: SF-295 CNS
HOP-92 NSCLC = system: HOP-92 NSCLC
HCC-2998 colon = system: HCC-2998 colon
SK-MEL-5 melanoma = system: SK-MEL-5 melanoma
HOP-18 NSCLC = system: HOP-18 NSCLC
CAKI-1 renal = system: CAKI-1 renal
SR leukemia = system: SR leukemia
SN12C renal = system: SN12C renal
OVCAR-4 ovarian = system: OVCAR-4 ovarian
ACHN renal = system: ACHN renal
SW-620 colon = system: SW-620 colon
HOP-62 NSCLC = system: HOP-62 NSCLC
SNB-75 CNS = system: SNB-75 CNS
NCI-H23 lung = system: NCI-H23 lung
SK-OV-3 ovarian = system: SK-OV-3 ovarian
K-562 leukemia = system: K-562 leukemia
COLO 205 colon = system: COLO 205 colon
IGROV1 ovarian = system: IGROV1 ovarian
CCRF-CEM leukemia = system: CCRF-CEM leukemia
OVCAR-5 ovarian = system: OVCAR-5 ovarian
KM20L2 colon = system: KM20L2 colon
786-0 renal = system: 786-0 renal
XF 498 CNS = system: XF 498 CNS
UACC-62 melanoma = system: UACC-62 melanoma
KM12 colon = system: KM12 colon
NCI-H226 lung = system: NCI-H226 lung
M14 melanoma = system: M14 melanoma
MALME-3M melanoma = system: MALME-3M melanoma
EKVX NSCLC = system: EKVX NSCLC
SF-539 CNS = system: SF-539 CNS
LXFL 529 NSCLC = system: LXFL 529 NSCLC
SNB-19 CNS = system: SNB-19 CNS
RPMI-8226 leukemia = system: RPMI-8226 leukemia
HCT-116 colon = system: HCT-116 colon
HT29 colon = system: HT29 colon
LOX IMVI melanoma = system: LOX IMVI melanoma
U251 CNS = system: U251 CNS
TK-10 renal = system: TK-10 renal
RXF 393 renal = system: RXF 393 renal
DLD-1 colon = system: DLD-1 colon
OVCAR-8 ovarian = system: OVCAR-8 ovarian
UO-31 renal = system: UO-31 renal
SNB-78 CNS = system: SNB-78 CNS
SF-268 CNS = system: SF-268 CNS
NCI-H460 lung = system: NCI-H460 lung
DMS 114 small cell lung = system: DMS 114 small cell lung
A498 renal = system: A498 renal
M19-MEL melanoma = system: M19-MEL melanoma
NCI-H522 lung = system: NCI-H522 lung

Measured: TGI

NC(=O)c1ncn(CCN2CCN(C(=O)NCCCCCCNC(=O)N3CCN(CCn4cnc(C(N)=O)c4N)CC3)CC2)c1N
not listed: DMS 114 small cell lung | A498 renal | M19-MEL melanoma | NCI-H522 lung
> 100 µM: all other assays above

CN(C)CCC(CCN(C)C)=NOC(=O)c1ccccc1
not listed: HOP-92 NSCLC | SR leukemia | OVCAR-5 ovarian | NCI-H226 lung | LOX IMVI melanoma | SNB-78 CNS
> 100 µM: all other assays above

C[C@H](NC(=O)n1c2ccccc2c2ccccc21)C(=O)O
not listed: OVCAR-4 ovarian | SNB-75 CNS | XF 498 CNS | M14 melanoma | UO-31 renal | SNB-78 CNS | A498 renal
> 100 µM: all other assays above

C[C@]12CCC[C@H](O)[C@H]1C[C@H](CO)CC2
not listed: SK-MEL-5 melanoma | EKVX NSCLC | RXF 393 renal | SNB-78 CNS | DMS 114 small cell lung
> 100 µM: all other assays above
